Consider 18 compounds from PubChem BioAssay AID256 (DTP/NCI, 2004).

Where “and” joins values, the source holds several entries; their conditions need not be identical. Equal entries are not always repeated. Toxic doses and inconclusive results are not listed.

The subject of this experiment is CD2F1 mice, L1210 leukemia ip, survival T/C. The experiment can be described thus: NCI In Vivo Anticancer Drug Screen. Data for tumor model L1210 Leukemia (intraperitoneal) in CD2F1 (CDF1) mice. Particulars: higher = longer survival. The method, boiled down: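 Tumor-bearing mice (transplanted tumor) were split into treated and vehicle control groups, and the measured endpoint of each treated group was divided by that of its vehicle controls.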

The mark [1] stands for this setting: endpoint: mean survival time, dose: 100.0 mg/kg/injection, schedule: Q04DX003 (ip), vehicle: saline.
[2] abbreviates: endpoint: mean survival time, dose: 200.0 mg/kg/injection, schedule: Q04DX003 (ip), vehicle: saline.
Setting [3] is: endpoint: mean survival time, dose: 400.0 mg/kg/injection, schedule: Q04DX003 (ip), vehicle: saline.
Setting [4] is: endpoint: mean survival time, dose: 100.0 mg/kg/injection, schedule: Q04DX003 (ip), vehicle: saline with Tween-80.
The mark [5] stands for this setting: endpoint: mean survival time, dose: 100.0 mg/kg/injection, schedule: Q01DX009 (ip), vehicle: saline with Tween-80.
Where [6] appears, read: endpoint: mean survival time, dose: 200.0 mg/kg/injection, schedule: Q01DX009 (ip), vehicle: saline with Tween-80.
The mark [7] stands for this setting: endpoint: mean survival time, dose: 400.0 mg/kg/injection, schedule: Q01DX009 (ip), vehicle: saline with Tween-80.
[8] abbreviates: endpoint: mean survival time, dose: 100.0 mg/kg/injection, schedule: Q04DX002 (ip), vehicle: saline with Tween-80.
[9] abbreviates: endpoint: mean survival time, dose: 200.0 mg/kg/injection, schedule: Q04DX002 (ip), vehicle: saline with Tween-80.

For `OC1OCCOC1O` (configuration not stated), the T/C reads like this: (endpoint: mean survival time, dose: 100.0 mg/kg/injection, schedule: Q01DX009 (ip), vehicle: saline) 114 % of control; under setting [1], 99 % of control; (endpoint: mean survival time, dose: 200.0 mg/kg/injection, schedule: Q01DX009 (ip), vehicle: saline) 114 % of control; under setting [2], 99 % of control; (endpoint: mean survival time, dose: 400.0 mg/kg/injection, schedule: Q01DX009 (ip), vehicle: saline) 121 % of control; under setting [3], 115 % of control.
In the case of `CC(NC1=NCCO1)c1cccc2ccccc12` (configuration not stated), the T/C under setting [4] was 89 % of control.
For the compound `Nc1ncnc2c1c(C(=O)NO)cn2C1OC(CO)C(O)C1O` (configuration not stated), the T/C (endpoint: mean survival time, dose: 50.0 mg/kg/injection, schedule: Q01DX001 (ip), vehicle: water) is 170 % of control.
For the compound `Cn1cc[n+](C)c1C(c1ccccc1)N1CCCCC1` (configuration not stated), the T/C is 106 % of control (endpoint: mean survival time, dose: 5.0 mg/kg/injection, schedule: Q01DX001 (ip), vehicle: saline with Tween-80); 94 % of control (endpoint: mean survival time, dose: 5.0 mg/kg/injection, schedule: Q01DX009 (ip), vehicle: saline with Tween-80); 96 % of control (endpoint: mean survival time, dose: 10.0 mg/kg/injection, schedule: Q01DX001 (ip), vehicle: saline with Tween-80); 100 % of control (endpoint: mean survival time, dose: 10.0 mg/kg/injection, schedule: Q01DX009 (ip), vehicle: saline with Tween-80); 102 % of control (endpoint: mean survival time, dose: 20.0 mg/kg/injection, schedule: Q01DX001 (ip), vehicle: saline with Tween-80); 98 % of control (endpoint: mean survival time, dose: 20.0 mg/kg/injection, schedule: Q01DX009 (ip), vehicle: saline with Tween-80).
With `CCSC(C(OC(C)=O)C(OC(C)=O)C(COC(C)=O)OC(C)=O)n1cc(F)c(=O)[nH]c1=O` (configuration not stated), the T/C runs as follows: (endpoint: mean survival time, dose: 12.5 mg/kg/injection, schedule: Q01DX005 (ip), vehicle: other) 100 % of control and 104 % of control; (endpoint: mean survival time, dose: 25.0 mg/kg/injection, schedule: Q01DX005 (ip), vehicle: other) 98 % of control and 105 % of control; (endpoint: mean survival time, dose: 50.0 mg/kg/injection, schedule: Q01DX005 (ip), vehicle: other) 88 % of control and 98 % of control; (endpoint: mean survival time, dose: 100.0 mg/kg/injection, schedule: Q01DX005 (ip), vehicle: other) 98 % of control and 105 % of control; (endpoint: mean survival time, dose: 200.0 mg/kg/injection, schedule: Q01DX005 (ip), vehicle: other) 94 % of control and 107 % of control.
For `Cc1ccc(S(=O)(=O)NNC(=O)C2(C)CC2(C)C(=O)O)cc1` (configuration not stated), the T/C is 96 % of control under setting [5], 96 % of control under setting [6] and 100 % of control under setting [7].
Consider `OC(CI)C(O)C(O)C(O)CI` (configuration not stated), for which the T/C is 106 % of control (endpoint: mean survival time, dose: 25.0 mg/kg/injection, schedule: Q01DX009 (oral), vehicle: other); 106 % of control (endpoint: mean survival time, dose: 50.0 mg/kg/injection, schedule: Q01DX009 (oral), vehicle: other); 95 % of control (endpoint: mean survival time, dose: 100.0 mg/kg/injection, schedule: Q01DX009 (oral), vehicle: other); 107 % of control (endpoint: mean survival time, dose: 200.0 mg/kg/injection, schedule: Q01DX009 (oral), vehicle: other); 107 % of control (endpoint: mean survival time, dose: 400.0 mg/kg/injection, schedule: Q01DX009 (oral), vehicle: other); 124 % of control (endpoint: mean survival time, dose: 800.0 mg/kg/injection, schedule: Q01DX009 (oral), vehicle: other).
`OC1CCCCCCCCCCC1C(O)(C(F)(F)F)C(F)(F)F` (configuration not stated): the T/C by setting is: (endpoint: mean survival time, dose: 100.0 mg/kg/injection, schedule: Q01DX001 (ip), vehicle: saline with Tween-80) 93 % of control and 89 % of control; under setting [5], 86 % of control; (endpoint: mean survival time, dose: 200.0 mg/kg/injection, schedule: Q01DX001 (ip), vehicle: saline with Tween-80) 89 % of control; under setting [6], 91 % of control; (endpoint: mean survival time, dose: 400.0 mg/kg/injection, schedule: Q01DX001 (ip), vehicle: saline with Tween-80) 91 % of control; under setting [7], 97 % of control.
Consider `CC1=C(N)C(=O)N(C)C1=O`, for which the T/C was 98 % of control (endpoint: mean survival time, dose: 25.0 mg/kg/injection, schedule: Q04DX002 (ip), vehicle: saline with Tween-80); 95 % of control (endpoint: mean survival time, dose: 50.0 mg/kg/injection, schedule: Q04DX002 (ip), vehicle: saline with Tween-80); 98 % of control under setting [8]; 98 % of control under setting [9].
Consider `CN=C(N)N=C(N)N`, for which the T/C reads like this: under setting [1], 103 % of control; under setting [2], 100 % of control; under setting [3], 95 % of control.
As for `COc1cc(C(C)=O)cc(OCc2ccccc2)c1OC`, the T/C is, setting by setting: under setting [5], 100 % of control; under setting [6], 102 % of control; under setting [7], 96 % of control.
As to `Cc1c(C=NC(=O)c2ccccc2)c2ccccc2n1C`, the T/C under setting [8] is 100 % of control; the T/C under setting [9] was 108 % of control; the T/C (endpoint: mean survival time, dose: 400.0 mg/kg/injection, schedule: Q04DX002 (ip), vehicle: saline with Tween-80) is 96 % of control.
As to `CCOC(CN(N=O)c1ccccc1C(C)C)OCC`, the T/C by setting is: under setting [5], 98 % of control; under setting [4], 103 % of control; under setting [6], 93 % of control; (endpoint: mean survival time, dose: 200.0 mg/kg/injection, schedule: Q04DX003 (ip), vehicle: saline with Tween-80) 98 % of control; (endpoint: mean survival time, dose: 400.0 mg/kg/injection, schedule: Q04DX003 (ip), vehicle: saline with Tween-80) 97 % of control.
As to `Nc1n[nH]c2cc(=O)[nH]c(O)c12`, the T/C was 97 % of control (endpoint: mean survival time, dose: 75.0 mg/kg/injection, schedule: Q01DX009 (ip), vehicle: saline); 106 % of control (endpoint: mean survival time, dose: 75.0 mg/kg/injection, schedule: Q04DX003 (ip), vehicle: saline); 103 % of control (endpoint: mean survival time, dose: 150.0 mg/kg/injection, schedule: Q01DX009 (ip), vehicle: saline); 102 % of control (endpoint: mean survival time, dose: 150.0 mg/kg/injection, schedule: Q04DX003 (ip), vehicle: saline); 111 % of control (endpoint: mean survival time, dose: 300.0 mg/kg/injection, schedule: Q01DX009 (ip), vehicle: saline); 106 % of control (endpoint: mean survival time, dose: 300.0 mg/kg/injection, schedule: Q04DX003 (ip), vehicle: saline).
With `O=NN(CCCl)C(=O)NC1[C@H](O)CCC[C@@H]1O` (some centres not stated), the T/C (endpoint: median survival time, dose: 0.63 mg/kg/injection, schedule: Q01DX009 (ip), vehicle: saline) was 167 % of control; the T/C (endpoint: median survival time, dose: 1.25 mg/kg/injection, schedule: Q01DX009 (ip), vehicle: saline) was 229 % of control and 108 % of control; the T/C (endpoint: median survival time, dose: 2.5 mg/kg/injection, schedule: Q01DX009 (ip), vehicle: saline) was 348 % of control and 365 % of control; the T/C (endpoint: median survival time, dose: 5.0 mg/kg/injection, schedule: Q01DX009 (ip), vehicle: saline) was 348 % of control and 365 % of control; the T/C (endpoint: median survival time, dose: 10.0 mg/kg/injection, schedule: Q01DX009 (ip), vehicle: saline) is 195 % of control and 218 % of control; the T/C (endpoint: median survival time, dose: 20.0 mg/kg/injection, schedule: Q01DX009 (ip), vehicle: saline) is 93 % of control and 101 % of control.
With `COc1cc(C2c3cc4c(cc3C(O)C(CO)C2CO)OCO4)cc(OC)c1OC` (configuration not stated), the T/C was 97 % of control (endpoint: mean survival time, dose: 12.5 mg/kg/injection, schedule: Q01DX009 (ip), vehicle: saline with Tween-80); 97 % of control (endpoint: mean survival time, dose: 25.0 mg/kg/injection, schedule: Q01DX009 (ip), vehicle: saline with Tween-80); 102 % of control (endpoint: mean survival time, dose: 50.0 mg/kg/injection, schedule: Q01DX009 (ip), vehicle: saline with Tween-80); 106 % of control under setting [5]; 107 % of control (endpoint: mean survival time, dose: 100.0 mg/kg/injection, schedule: Q04DX003 (ip), vehicle: saline sonified); 114 % of control (endpoint: mean survival time, dose: 150.0 mg/kg/injection, schedule: Q04DX003 (ip), vehicle: saline sonified). Also, the T/C (endpoint: mean survival time, dose: 225.0 mg/kg/injection, schedule: Q04DX003 (ip), vehicle: saline sonified) was 108 % of control and the T/C under setting [7] is 122 % of control.
For the compound `O=C1Nc2ccccc2C1c1ccccc1` (configuration not stated), the T/C reads like this: under setting [8], 97 % of control; under setting [9], 90 % of control.
Turning to `CCOC(=O)C(Cl)c1ccc(OC)cc1` (configuration not stated), the T/C (endpoint: mean survival time, dose: 100.0 mg/kg/injection, schedule: Q04DX003 (ip), vehicle: other) is 96 % of control; the T/C (endpoint: mean survival time, dose: 200.0 mg/kg/injection, schedule: Q04DX003 (ip), vehicle: other) was 97 % of control; the T/C (endpoint: mean survival time, dose: 400.0 mg/kg/injection, schedule: Q04DX003 (ip), vehicle: other) was 96 % of control.
